US20260248774A1, “INHIBITORS OF BACTERIAL TYPE III SECRETION SYSTEM” (MICROBIOTIX, INC., priority 2022, published 2026)
In brackets after ≈: the same amount, converted by molar mass. Where two headings read alike, the source gives them in different places.

Key:
[1] = system: P. aeruginosa T3SS-mediated secretion (exoT-luxCDABE reporter strain MDM852); experiment: Luciferase (exoT-lux) transcriptional reporter assay of T3SS-mediated secretion; assay type: cell-based, Pseudomonas aeruginosa
From the text: Luciferase Transcriptional Reporter Assay of T3SS-Mediated Secretion with a Luminescent Signal.
A transcriptional fusion of the Photorhabdus luminescens lux operon (luxCDABE) to P. aeruginosa PAO1 T3SS effector gene exoT (PA0044) was constructed and used to build strain MDM852 as described previously (Aiello et al., 2010, Antimicrob Agents Chemother, 54:1988-1999). Induction of T3SS operons by Ca^++ depletion due to EGTA addition results in secretion of the T3SS negative regulator ExsE and the production of high levels of T3SS components including the luxCDABE gene products, which results in luminescence that is easily detected by a microplate reader. Inhibition of T3SS-mediated secretion of the negative regulator ExsE by a small molecule inhibitor causes reduced production of luxCDABE gene products and reduced luminescence. For inhibitor IC50 testing, compounds were added to a 96-well microplate in a concentration dilution series. Reporter strain MDM852 was grown at 37° C. in LBG to OD600 ~0.025-0.05, transferred into the microplate (50 uL/well) containing test compounds and EGTA (5 uL of 0.1 M stock solution), which was covered with a translucent gas-permeable seal (Abgene, Inc., Cat. No. AB-0718). […] Plates were incubated at room temperature for 300 min. Then, luminescence was measured in an Envision Multilabel microplate reader (PerkinElmer). The screening window coefficient, Z′-factor (see Zhang, et al., 1999, J. Biomol. Screen., 4:67-73), defined as the ratio of the positive and negative control separation band to the signal dynamic range of the assay, averaged 0.7 for the assay.

[2] = system: T3SS-mediated translocation of ExoU by P. aeruginosa strain MDM1561 (PA99U) into CHO cells; experiment: P. aeruginosa ExoU-dependent CHO cell killing assay for T3SS-mediated translocation; assay type: cell-based, Pseudomonas aeruginosa; conditions: for EC50: read-out: Translocation EC50; for potency of inhibition of T3SS-mediated translocation: assessment in text on Table 1
From the text: P. aeruginosa ExoU-Dependent CHO Cell Killing.

[3] = system: P. aeruginosa T3SS-mediated secretion of ExoS-β-lactamase fusion protein; experiment: Effector-β-lactamase (ExoS-βLA) reporter assay of T3SS-mediated secretion; assay type: cell-based, Pseudomonas aeruginosa; conditions: read-out: ExoS-BLA IC50
From the text: Effector-β-Lactamase (βLA) Reporter Assay of T3SS-Mediated Secretion with an Absorbency Signal.
A gene encoding the exoS promoter/regulatory region and an ExoS-β-lactamase (βLA) fusion protein (comprised of the full length P. aeruginosa T3SS effector ExoS fused in reading frame to the TEM-1 β-lactamase gene lacking secretion signal codons) was constructed by splicing by overlap extension PCR (SOE-PCR) (Choi and Schweizer, 2005, BMC Microbiol., 5:30), sequence confirmed, cloned into miniCTX and introduced into P. aeruginosa strain PAO1 to generate strains MDM1746 and MDM1838 as previously described for strain MDM1710 (Bowlin et al., 2014, Antimicrob Agents Chemother., 58:2211-2220). Secretion of ExoS-β-lactamase fusion protein following EGTA addition to induce the T3SS operons was detected by measuring the hydrolysis of the chromogenic β-lactamase substrate nitrocefin in clear 96-well microplates in a modification of a previously described assay (Lee, et al., 2007, Infect. Immun., 75:1089-98). Cells of strain MDM1746, or negative control MDM1838 (which fails to carry out T3SS secretion due to ΔpscF), were sub-cultured in the morning from overnight growths in LBG into 0.1 ml of LBGE with or without test compounds and grown for 150 min. Nitrocefin (100 μg/mL final) was added, and A490 measurements taken every minute for 15 min in a Victor^3V 1420 Multilabel HTS Counter (PerkinElmer). Slopes were calculated as a relative measure of the quantity of the effector-βLA fusion protein secreted and were absolutely dependent on induction with EGTA, and the presence of a functional pscF gene in the P. aeruginosa cells. Typical signal: background ratios were 6-10.

[4] = Kinetic aqueous solubility (nephelometric assay); assay type: physicochemical; conditions: for Sol: Table 1; for solubility kinetic: kinetic from dmso stock, Table 9, kinetic solubility in water (nephelometric assay)
From the text: Solubility. The maximum aqueous solubility of analogs will be initially determined by nephelometry using a published method (44).

[5] = Mammalian cytotoxicity (CC50), MTS conversion; assay type: cell-based, human; conditions: human
Method: (§1) Determination of Mammalian Cytotoxicity.
(§2) Following incubation for 3 days at 37° C. in VP-SFM, cell viability was measured with the vital tetrazolium salt stain 3-(4,5-dimethylthiazol-2-yl)-2,5 diphenyltetrazolium bromide according to the manufacturer's instructions (Promega, Madison, Wisconsin). Values were determined in triplicate using dilutions of inhibitory compound from 100 μM to 0.2 μM.

HeLa cells = experiment: Mammalian cytotoxicity (CC50), MTS conversion; assay type: cell-based, human; conditions: assessment in text on Table 1
Method: as §1, §2

[6] = Single dose pharmacokinetic (PK) determination in mice; set-up: species or system CD-1 mice; conditions: in vivo
[7] = system: T3SS translocation, clinical isolates of Pseudomonas aeruginosa
[8] = read-out: LUX Sec IC50, Table 1
[9] = HeLa cells, Table 1, HeLa, read-out: Cytotox-HeLa CC50
[10] = Table 9, cytotoxicity vs. HeLa cells, read-out: Cytotox CC50

SMILES | IC50 [1, 8] | EC50 ([2]; Table 1) | IC50 ([3]; Table 1) | solubility kinetic [4] | CC50 at 3 days [5, 10] | also measured
CC(Oc1ccc(Cl)cc1Cl)C(=O)NCc1ccc2c(c1)OCO2 (stereo not drawn) [MBX-1641, N-(benzo[d][1,3]dioxol-5-ylmethyl)-2-(2,4-dichlorophenoxy)propanamide, reference compound] | 4.7 µM | 15 µM | 10 µM | – | – | IC50 ([1]; read-out: LUX IC50, Table 6): 4.7 µM; EC50 ([2]; Table 6): 15 µM; IC50 ([3]; Table 6): 10 µM
CCC(Oc1ncc(Cl)cc1Cl)C(=O)NCc1ccc2c(c1)OCO2 (stereo not drawn) [MBX-2263] | 2.7 µM | 17 µM | 2 µM | – | – | Sol [4]: 25 µM; solubility for formulation ([4]; assessment in text on Table 1): not soluble enough; CC50 at 3 days [5, 9]: > 100 µM
CCC(Oc1ncc(Cl)cc1Cl)C(=O)NCc1ccc(F)cc1 (stereo not drawn) [MBX-2264] | 2 µM | > 35 µM | 2 µM | – | – | Sol [4]: 200 µM; CC50 at 3 days [5, 9]: 85 µM; potency of inhibition of T3SS-mediated translocation [2]: not quite potent enough
CCC(Oc1ncc(Cl)cc1Cl)C(=O)NCc1ccc2sccc2c1 (stereo not drawn) [MBX-2359, reference compound] | 1.3 µM | – | 1.5 µM | – | – | IC50 ([1]; read-out: LUX IC50, Table 6): 1.3 µM; IC50 ([3]; Table 6): 1.5 µM
CC(Oc1ccc(Cl)cc1Cl)C(=O)NCc1cc2ccccc2[nH]1 (stereo not drawn) [MBX-2624] | 8.7 µM | 17 µM | 9 µM | – | – | Sol [4]: 100 µM; CC50 at 3 days [5, 9]: 9 µM; cytotoxicity (HeLa cells): exhibit cytotoxicity
CC(Oc1ccc(Cl)cc1Cl)C(=O)NC(CO)c1ccc(F)cc1 (stereo not drawn) [MBX-2625] | 7.1 µM | 22 µM | 5 µM | – | – | –
CC(Oc1ccc(Cl)cc1Cl)C(=O)NCC(O)c1ccc(F)cc1 (stereo not drawn) [MBX-2785] | 18 µM | 25 µM | 15 µM | – | – | potency of inhibition of T3SS-mediated translocation [2]: not quite potent enough
CC(=O)Nc1ccc(CCNC(=O)C(C)Oc2ccc(Cl)cc2Cl)cc1 (stereo not drawn) [MBX-2837] | 3.5 µM | 13 µM | 9 µM | – | – | –
CC[C@@H](Oc1ncc(Cl)cc1Cl)C(=O)NCc1ccc2cc(CN(C)C)[nH]c2c1 [MBX-2867] | 1.6 µM | 5.8 µM | 1.3 µM | – | – | Sol [4]: 3000 µM; CC50 at 3 days [5, 9]: 30 µM; cytotoxicity (HeLa cells): exhibit cytotoxicity
CC[C@@H](Oc1ncc(Cl)cc1Cl)C(=O)NC(CO)Cc1ccc(F)cc1 (stereo partly drawn) [MBX-3323] | 5.2 µM | 13 µM | 5 µM | – | – | potency of inhibition of T3SS-mediated translocation [2]: not quite potent enough
CC[C@@H](Oc1ncc(Cl)cc1Cl)C(=O)NCCc1ccc(NC(C)=O)cc1 [MBX-3337] | 1.4 µM | 4.8 µM | 1.2 µM | – | – | –
CC[C@@H](Oc1ncc(Cl)cc1Cl)C(=O)NCc1ccc2cc(C(=O)N3CCOCC3)[nH]c2c1 [MBX-3458] | 3.7 µM | 5.2 µM | 0.9 µM | – | – | Sol [4]: 25 µM; CC50 at 3 days [5, 9]: 100 µM; half-life in mice [6]: short half-lives in mice
CC[C@@H](Oc1ncc(Cl)cc1Cl)C(=O)NCc1cccc(CN)c1 [MBX-4565] | 8.3 µM | 20 µM | 9 µM | – | – | –
CC[C@@H](Oc1ncc(Cl)cc1Cl)C(=O)N[C@@H](CO)Cc1ccc(F)cc1 [MBX-4567] | 8.5 µM | 60 µM | 14 µM | – | – | potency of inhibition of T3SS-mediated translocation [2]: not quite potent enough
CC[C@@H](Oc1ncc(Cl)cc1Cl)C(=O)NCc1cccc(C(=O)NC2CNC2)c1 [MBX-5031] | 0.2 µM | 1.7 µM | 1.7 µM | – | – | –
CC[C@@H](Oc1ncc(Cl)cc1Cl)C(=O)NCc1cccc(C(=O)NC2CN(CCC(=O)[O-])C2)c1.[Li+] [MBX-5427A] | – | – | – | 100 µM | ≥ 200 µM | –
CC[C@@H](Oc1ncc(Cl)cc1Cl)C(=O)NCc1cccc(C(=O)NC2CN(CCCC(=O)[O-])C2)c1.[Li+] [MBX-5430A] | – | – | – | 200 µM | ≥ 200 µM | –

SMILES | IC50 [1, 8] | EC50 ([2]; Table 1) | IC50 ([3]; Table 1) | solubility kinetic [4] | CC50 at 3 days [5, 10] | also measured
CC[C@@H](Oc1ncc(Cl)cc1Cl)C(=O)NCc1cccc(NC(=O)NC2CN(CCC(=O)[O-])C2)c1.[Li+] [MBX-5442A] | – | – | – | 200 µM | ≥ 200 µM | –
CC[C@@H](Oc1ncc(Cl)cc1Cl)C(=O)NCc1cccc(NC(=O)NC2CC3(C2)CN(CCC(=O)O)C3)c1 [MBX-5452A] | – | 2.7 µM | – | – | – | EC50 [7]: 0.74 µg/mL (≈ 1.31 µM); EC50 ([2]; Table 6): 2.7 µM
CC[C@@H](Oc1ncc(Cl)cc1Cl)C(=O)NCc1cccc(C(=O)NC2CN(CC(=O)[O-])C2)c1.[Li+] [MBX-5454A] | – | – | – | 200 µM | ≥ 100 µM | –
CC[C@@H](Oc1ncc(Cl)cc1Cl)C(=O)NCc1cccc(CNC2CC(C(=O)[O-])C2)c1.[Li+] (stereo partly drawn) [MBX-5456A] | – | – | – | 200 µM | 107 µM | –
CC[C@@H](Oc1ncc(Cl)cc1Cl)C(=O)NCc1cccc(C(=O)NCC2CC3(C2)CN(CCC(=O)[O-])C3)c1.[Li+] [MBX-5522A] | – | – | – | ≥ 400 µM | – | –
CC[C@@H](Oc1ncc(Cl)cc1Cl)C(=O)NCc1cccc(C(=O)NC2CC3(C2)CN(CCCC(=O)[O-])C3)c1.[Li+] [MBX-5524A] | – | – | – | ≥ 400 µM | – | –
CC[C@@H](Oc1ncc(Cl)cc1Cl)C(=O)NCc1cccc(C(=O)NC2CC3(C2)CN(CC(=O)[O-])C3)c1.[Li+] [MBX-5527A] | – | – | – | ≥ 400 µM | – | –
CC[C@@H](Oc1ncc(Cl)cc1Cl)C(=O)NCc1cccc(C(=O)N2CC3(CC(NCCC(=O)[O-])C3)C2)c1.[Li+] [MBX-5529A] | – | – | – | ≥ 400 µM | – | –
CC[C@@H](Oc1ncc(Cl)cc1Cl)C(=O)NCc1cccc(CC(=O)NC2CC3(C2)CN(CCC(=O)[O-])C3)c1.[Li+] [MBX-5548A] | – | – | – | 200 µM | – | –
CC[C@@H](Oc1ncc(Cl)cc1Cl)C(=O)NCc1cccc(NC(=O)N2CC3(CN(CC(C)(C)C(=O)[O-])C3)C2)c1.[Li+] [MBX-7061A] | – | – | – | 1.1 µM | – | –
CC[C@@H](Oc1ncc(Cl)cc1Cl)C(=O)NCc1cccc(NC(=O)N2CC3(CN(CCC(=O)[O-])C3)C2)c1.[Li+] [MBX-7062A] | – | – | – | 3.5 µM | – | –
CC[C@@H](Oc1ncc(Cl)cc1Cl)C(=O)NCc1cccc(NC(=O)NCC2CN(CC(=O)O)C2)c1 [MBX-7438A] | – | – | – | – | ≥ 200 µM | –
CC[C@@H](Oc1ccc(Cl)c(Cl)c1Cl)C(=O)NCc1cccc(NC(=O)NC2CC3(C2)CN(CC(=O)O)C3)c1 [MBX-7476A] | – | – | – | – | ≥ 200 µM | –
CC[C@@H](Oc1ccc(Cl)c(Cl)c1Cl)C(=O)NCCc1cccc(NC(=O)NC2CC3(C2)CN(CCC(=O)O)C3)c1 [MBX-7477A] | – | – | – | – | ≥ 200 µM | –
CC[C@@H](Oc1ccc(Cl)c(Cl)c1Cl)C(=O)NCCc1cccc(NC(=O)NC2CC3(C2)CN(CC(=O)O)C3)c1 [MBX-7478A] | – | – | – | – | ≥ 200 µM | –
CC[C@@H](Oc1ncc(Cl)cc1Cl)C(=O)NCc1cccc(NC(=O)NCCNCC(=O)O)c1 [MBX-7497A] | – | – | – | – | ≥ 200 µM | –
CC[C@@H](Oc1ncc(Cl)cc1Cl)C(=O)NCc1cccc(NC(=O)NC2COCC(NCCC(=O)O)C2)c1 (stereo partly drawn) [MBX-7531A] | – | – | – | – | ≥ 200 µM | –
